Where two headings read alike, the source gives them in different places.
Target: T1, TPM3-TRKA fusion protein (Homo sapiens, UniProt P04629)
T1 construct: The resulted chimeric proteins always retain the kinase domain of TRK proteins; TPM3 (fusion partner, N-terminal part of tropomyosin alpha-3, P06753); endogenous in cells; host or cells: KM12 colon cancer cells; the other entry of the earlier key: TPM3 (P06753, Tropomyosin alpha-3 chain)
Assay: TPM3-TRKA fusion protein levels in KM12 cells (Western blot)
Type: cell-based
Details: for percent degradation of TPM3-TRKA protein at 0.01 µM: read-out: Degradation (at 10 nM)
In short: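 KM12 colon cancer cells were treated with DMSO or compounds at 0.1–100 nM, 0.4–30 nM or other stated concentrations for 4, 8–16 or 16 h. RIPA lysates were BCA-normalized and resolved by SDS-PAGE. TPM3-TRKA was detected by chemiluminescent Western blot, with bands quantified by densitometry.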

[1] = 16 h, TPM3-TRKA degradation in KM12 cells at 10 nM compound, category of percentage degradation

T1 sequence (P04629 with tags, fused parts or gaps): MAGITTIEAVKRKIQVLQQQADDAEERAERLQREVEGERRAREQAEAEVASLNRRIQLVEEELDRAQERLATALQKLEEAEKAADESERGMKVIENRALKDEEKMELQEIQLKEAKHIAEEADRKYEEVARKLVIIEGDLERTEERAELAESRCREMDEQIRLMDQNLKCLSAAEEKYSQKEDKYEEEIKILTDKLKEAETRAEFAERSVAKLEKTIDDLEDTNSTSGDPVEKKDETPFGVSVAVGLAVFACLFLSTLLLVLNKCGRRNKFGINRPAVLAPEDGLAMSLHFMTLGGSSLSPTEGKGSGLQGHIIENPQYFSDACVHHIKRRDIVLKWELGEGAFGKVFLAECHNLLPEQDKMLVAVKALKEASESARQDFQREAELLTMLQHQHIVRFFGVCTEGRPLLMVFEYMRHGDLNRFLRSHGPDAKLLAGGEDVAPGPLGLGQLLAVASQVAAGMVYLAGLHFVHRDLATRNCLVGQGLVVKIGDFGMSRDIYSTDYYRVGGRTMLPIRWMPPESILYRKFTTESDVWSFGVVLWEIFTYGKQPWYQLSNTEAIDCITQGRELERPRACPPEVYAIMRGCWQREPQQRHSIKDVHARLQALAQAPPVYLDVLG

Compound	percent degradation of TPM3-TRKA protein at 0.01 µM [1] [%]	TPM3-TRKA protein levels (KM12 cells, 100 nM, indicated incubation time, Western blot (FIG. 2))	percent degradation of TPM3-TRKA protein at 0.01 µM (KM12, 16 h) [%]
O=C(CN1CCN(c2cccc(-c3cnc4ccc(N5CCC[C@@H]5c5cccc(F)c5)nn34)n2)CC1)NCCOCCOCCOCCOCCNc1cccc2c1C(=O)N(C1CCC(=O)NC1=O)C2=O (stereo partly drawn) [TR-108, N-(14-((2-(2,6-dioxopiperidin-3-yl)-1,3-dioxoisoindolin-4-yl)amino)-3,6,9,12-tetraoxatetradecyl)-2-(4-(6-(6-((R)-2-(3-fluorophenyl)pyrrolidin-1-yl)imidazo[1,2-b]pyridazin-3-yl)pyridin-2-yl)piperazin-1-yl)acetamide]	> 80	–	–
O=C1CCC(N2C(=O)c3ccc(CCCN4CCN(c5cccc(-c6cnc7ccc(N8CCC[C@@H]8c8cccc(F)c8)nn67)n5)CC4)cc3C2=O)C(=O)N1 (stereo partly drawn) [TR-172, 2-(2,6-dioxopiperidin-3-yl)-5-(3-(4-(6-(6-((R)-2˜ (3-fluorophenyl)pyrrolidin-1-yl)imidazo[1,2-b]pyridazin-3-yl)pyridin-2-yl)piperazin-1-yl)propyl)isoindoline-1,3-dione]	–	–	> 80
O=C(CN1CCN(c2ccc(C(=O)Nc3n[nH]c4ccc(Cc5cc(F)cc(F)c5)cc34)c(NC3CCOCC3)c2)CC1)NCCCCCCNc1cccc2c1C(=O)N(C1CCC(=O)NC1=O)C2=O (stereo not drawn) [TR-147, N—(S-(3,5-Difluorobenzyl)-1H-indazol-3-yl)-4-(4-(2-((6-((2-(2,6-dioxopiperidin-3-yl)-1,3-dioxoisoindolin-4-yl)amino)hexyl)amino)-2-oxoethyl)piperazin-1-yl)-2-((tetrahydro-2H-pyran-4-yl)amino)benzamide]	> 80	–	–
O=C(CN1CCN(c2ccc(C(=O)Nc3n[nH]c4ccc(Cc5cc(F)cc(F)c5)cc34)c(NC3CCOCC3)c2)CC1)NCCOCCNc1cccc2c1C(=O)N(C1CCC(=O)NC1=O)C2=O (stereo not shown) [TR-151, N-(5-(3,5-Difluorobenzyl)-1H-indazol-3-yl)-4-(4-(2-((2-(2-((2-(2,6-dioxopiperidin-3-yl)-1,3-dioxoisoindolin-4-yl)amino)ethoxy)ethyl)amino)-2-oxoethyl)piperazin-1-yl)-2-((tetrahydro-2H-pyran-4-yl)amino)benzamide]	> 80	–	–
O=C(CN1CCN(c2cccc(-c3cnc4ccc(N5CCC[C@@H]5c5cccc(F)c5)nn34)n2)CC1)NCCCCCNc1ccc2c(c1)C(=O)N(C1CCC(=O)NC1=O)C2=O (stereo partly drawn) [TR-131, N-(5-((2-(2,6-dioxopiperidin-3-yl)-1,3-dioxoisoindolin-5-yl)amino)pentyl)-2-(4-(6-(6-((R)-2-(3-fluorophenyl)pyrrolidin-1-yl)imidazo[1,2-b]pyridazin-3-yl)pyridin-2-yl)piperazin-1-yl)acetamide]	> 80	–	–
O=C(CN1CCN(c2ccc(C(=O)Nc3n[nH]c4ccc(Cc5cc(F)cc(F)c5)cc34)c(NC3CCOCC3)c2)CC1)NCCOCCOCCOCCOCCNc1cccc2c1C(=O)N(C1CCC(=O)NC1=O)C2=O (stereo not shown) [TR-150, N-(5-(3,5-Difluorobenzyl)-1H-indazol-3-yl)-4-(4-(17-((2˜ (2,6-dioxopiperidin-3-yl)-1,3-dioxoisoindolin-4-yl)amino)-2-oxo-6,9,12,15-tetraoxa-3-azaheptadecyl)piperazin-1-yl)-2˜ ((tetrahydro-2H-pyran-4-yl)amino)benzamide]	> 80	–	–
O=C1CCC(N2Cc3cc(NCC4CN(c5cccc(-c6cnc7ccc(N8CCC[C@@H]8c8cccc(F)c8)nn67)n5)C4)ccc3C2=O)C(=O)N1 (stereo partly drawn) [TR-210, 3-(5-(((1-(6-(6-((R)-2-(3-Fluorophenyl)pyrrolidin-1-yl)imidazo[1,2-b]pyridazin-3-yl)pyridin-2-yl)azetidin-3-yl)methyl)amino)-1-oxoisoindolin-2-yl)piperidine-2,6-dione]	50 to 80	–	–
O=C1CCC(N2C[C@H](c3ccc(CN4CCN(c5cccc(-c6cnc7ccc(N8CCC[C@@H]8c8cccc(F)c8)nn67)n5)CC4)cc3)OC2=O)C(=O)N1 (stereo partly drawn) [TR-229, 3-((S)-5-(4-((4-(6-(6-((R)-2-(3-fluorophenyl)pyrrolidin-1-yl)imidazo[1,2-b]pyridazin-3-yl)pyridin-2-yl)piperazin-1-yl)methyl)phenyl)-2-oxooxazolidin-3-yl)piperidine-2,6-dione]	50 to 80	–	–
O=C1CCC(N2Cc3ccc(NCCN4CCN(c5cccc(-c6cnc7ccc(N8CCC[C@@H]8c8cccc(F)c8)nn67)n5)CC4)cc3C2=O)C(=O)N1 (stereo partly drawn) [TR-196, 3-(6-((2-(4-(6-(6-((R)-2-(3-fluorophenyl)pyrrolidin-1-yl)imidazo[1,2-b]pyridazin-3-yl)pyridin-2-yl)piperazin-1-yl)ethyl)amino)-1-oxoisoindolin-2-yl)piperidine-2,6-dione]	50 to 80	–	–
O=C(CN1CCN(c2cccc(-c3cnc4ccc(N5CCC[C@@H]5c5cccc(F)c5)nn34)n2)CC1)NCCOCCOCCNc1cccc2c1C(=O)N(C1CCC(=O)NC1=O)C2=O (stereo partly drawn) [TR-105, N-(2-(2-(2-((2-(2,6-dioxopiperidin-3-yl)-1,3-dioxoisoindolin-4-yl)amino)ethoxy)ethoxy)ethyl)-2-(4-(6-(6-((R)-2-(3-fluorophenyl)pyrrolidin-1-yl)imidazo[1,2-b]pyridazin-3-yl)pyridin-2-yl)piperazin-1-yl)acetamide]	> 80	–	–
O=C1CCC(N2C(=O)c3ccc(N4CCC(N5CCN(c6cccc(-c7cnc8ccc(N9CCC[C@@H]9c9cccc(F)c9)nn78)n6)CC5)CC4)cc3C2=O)C(=O)N1 (stereo partly drawn) [TR-182, 2-(2,6-dioxopiperidin-3-yl)-5-(4-(4-(6-(6-((R)-2-(3-fluorophenyl)pyrrolidin-1-yl)imidazo[1,2-b]pyridazin-3-yl)pyridin-2-yl)piperazin-1-yl)piperidin-1-yl)isoindoline-1,3-dione]	–	–	> 80
O=C1CCC(N2C(=O)c3ccc(NCC(=O)N4CCN(c5ccc(C(=O)Nc6n[nH]c7ccc(Cc8cc(F)cc(F)c8)cc67)c(NC6CCOCC6)c5)CC4)cc3C2=O)C(=O)N1 (stereo not shown) [TR-144, N-(5˜ (3,5-Difluorobenzyl)-1H-indazol-3-yl)-4-(4-((2˜ (2,6-dioxopiperidin-3-yl)-1,3-dioxoisoindolin-5-yl)glycyl)piperazin-1-yl)-2-((tetrahydro-2H-pyran-4-yl)amino)benzamide]	> 80	–	–
O=C1CCC(N2C(=O)c3ccc(OCCN4CCN(c5cccc(-c6cnc7ccc(N8CCC[C@@H]8c8cccc(F)c8)nn67)n5)CC4)cc3C2=O)C(=O)N1 (stereo partly drawn) [TR-173, 2˜ (2,6-dioxopiperidin-3-yl)-5-(2-(4-(6-(6-((R)-2-(3-fluorophenyl)pyrrolidin-1-yl)imidazo[1,2-b]pyridazin-3-yl)pyridin-2-yl)piperazin-1-yl)ethoxy) isoindoline-1,3-dione]	–	–	> 80

More lines, main results first:

percent degradation of TPM3-TRKA protein at 0.01 µM [1] [%]	TPM3-TRKA protein levels (KM12 cells, 100 nM, indicated incubation time, Western blot (FIG. 2))	Compound	percent degradation of TPM3-TRKA protein at 0.01 µM (KM12, 16 h) [%]
> 80	rapidly reduced TPM3-TRKA protein levels	O=C(CN1CCN(c2cccc(-c3cnc4ccc(N5CCC[C@@H]5c5cccc(F)c5)nn34)n2)CC1)NCCNc1cccc2c1C(=O)N(C1CCC(=O)NC1=O)C2=O (stereo partly drawn) [CPD-060, N-(2-((2˜ (2,6-Dioxopiperidin-3-yl)-1,3-dioxoisoindolin-4-yl)amino)ethyl)-2-(4-(6-(6-((R)-2-(3-fluorophenyl)pyrrolidin-1-yl)imidazo[1,2-b]pyridazin-3-yl)pyridin-2-yl)piperazin-1-yl)acetamide]	–
50 to 80	–	Cc1ncsc1-c1ccc(CNC(=O)[C@@H]2C[C@@H](O)CN2C(=O)[C@@H](NC(=O)COCC(=O)N2CCN(c3ccc(C(=O)Nc4n[nH]c5ccc(Cc6cc(F)cc(F)c6)cc45)c(NC4CCOCC4)c3)CC2)C(C)(C)C)cc1 [CPD-045, (28,4R)-1-((S)-2-(2-(2-(4-(4-((5-(3,5˜Difluorobenzyl)-1H-indazol-3-yl)carbamoyl)-3-((tetrahydro-2H-pyran-4-yl)amino)phenyl)piperazin-1-yl)-2-oxoethoxy)acetamido)-3,3-dimethylbutanoyl)-4-hydroxy-N-(4-(4-methylthiazol-5-yl)benzyl)pyrrolidine-2-carboxamide]	–
< 50	–	Cc1ncsc1-c1ccc(CNC(=O)[C@@H]2C[C@@H](O)CN2C(=O)[C@@H](NC(=O)COCCOCCOCC(=O)N2CCN(c3ccc(C(=O)Nc4n[nH]c5ccc(Cc6cc(F)cc(F)c6)cc45)c(NC4CCOCC4)c3)CC2)C(C)(C)C)cc1 [CPD-058, (25,4R)-1-((S)-2-(tert-butyl)-14-(4-(4-((5-(3,5-Difluorobenzyl)-1H-indazol-3-yl)carbamoyl)-3-((tetrahydro-2H-pyran-4-yl)amino)phenyl)piperazin-1-yl)-4,14-dioxo-6,9,12-trioxa-3-azatetradecanoyl)-4-hydroxy-N-(4-(4-methylthiazol-5-yl)benzyl)pyrrolidine-2-carboxamide]	–
> 80	–	O=C1CCC(N2C(=O)c3cccc(NCCCCCCCC(=O)N4CCN(c5ccc(C(=O)Nc6n[nH]c7ccc(Cc8cc(F)cc(F)c8)cc67)c(NC6CCOCC6)c5)CC4)c3C2=O)C(=O)N1 (stereo not shown) [CPD-052, N-(5-(3,5-Difluorobenzyl)-1H-indazol-3-yl)-4-(4-(8-((2-(2,6-dioxopiperidin-3-yl)-1,3-dioxoisoindolin-4-yl)amino)octanoyl)piperazin-1-yl)-2-((tetrahydro-2H-pyran-4-yl)amino)benzamide]	–
> 80	–	Cc1ncsc1-c1ccc(CNC(=O)[C@@H]2C[C@@H](O)CN2C(=O)[C@@H](NC(=O)CCCCCC(=O)N2CCN(c3ccc(C(=O)Nc4n[nH]c5ccc(Cc6cc(F)cc(F)c6)cc45)c(NC4CCOCC4)c3)CC2)C(C)(C)C)cc1 [CPD-047, (28,4R)-1-((S)-2-(7-(4-(4-((5-(3,5-Difluorobenzyl)-1H-indazol-3-yl)carbamoyl)-3-((tetrahydro-2H-pyran-4-yl)amino)phenyl)piperazin-1-yl)-7-oxoheptanamido)-3,3-dimethylbutanoyl)-4-hydroxy-N-(4-(4-methylthiazol-5-yl)benzyl)pyrrolidine-2-carboxamide]	–

Reference: patent publication US12410171B2, “Tropomyosin receptor kinase (TRK) degradation compounds and methods of use” (Cullgen (Shanghai), Inc., priority 2020, dated 2025)
